Experimental data as given in ChEMBL document CHEMBL5723584 (2023).

Tests used:
[1] = molecular target: Protein-tyrosine kinase 2-beta (Homo sapiens) (UniProt Q14289); assay: activity of Pyk2(h) at 1.0 µM in the Eurofins Kinase panel; conditions: Compound concentration 1.0 uM
[2] = molecular target: Serine/threonine-protein kinase TAO2 (Homo sapiens) (UniProt Q9UL54); assay: activity of TAO2(h) at 1.0 µM in the Eurofins Kinase panel; conditions: Compound concentration 1.0 uM
[3] = molecular target: Serine/threonine-protein kinase MARK1 (Homo sapiens) (UniProt Q9P0L2); assay: activity of MARK1(h) at 1.0 µM in the Eurofins Kinase panel; conditions: Compound concentration 1.0 uM
[4] = molecular target: Cyclin-dependent kinase 14/Cyclin-Y (Homo sapiens) (UniProt O94921+Q8ND76); assay: activity of CDK14/cyclinY(h) at 1.0 µM in the Eurofins Kinase panel; type: protein-complex assay; conditions: Compound concentration 1.0 uM
[5] = molecular target: Serine/threonine-protein kinase Nek6 (Homo sapiens) (UniProt Q9HC98); assay: activity of NEK6(h) at 1.0 µM in the Eurofins Kinase panel; conditions: Compound concentration 1.0 uM
[6] = molecular target: Serine/threonine-protein kinase Sgk1 (Homo sapiens) (UniProt O00141); assay: activity of SGK(h) at 1.0 µM in the Eurofins Kinase panel; conditions: Compound concentration 1.0 uM
[7] = molecular target: Mitogen-activated protein kinase 12 (Homo sapiens) (UniProt P53778); assay: activity of SAPK3(h) at 1.0 µM in the Eurofins Kinase panel; conditions: Compound concentration 1.0 uM
[8] = molecular target: Inhibitor of nuclear factor kappa-B kinase subunit alpha (Homo sapiens) (UniProt O15111); assay: activity of IKKalpha(h) at 1.0 µM in the Eurofins Kinase panel; conditions: Compound concentration 1.0 uM
[9] = molecular target: Serine/threonine-protein kinase 26 (Homo sapiens) (UniProt Q9P289); assay: activity of MST4(h) at 1.0 µM in the Eurofins Kinase panel; conditions: Compound concentration 1.0 uM
[10] = molecular target: 5'-AMP-activated protein kinase catalytic subunit alpha-1 (Homo sapiens) (UniProt Q13131); assay: activity of AMPKalpha1(h) at 1.0 µM in the Eurofins Kinase panel; conditions: Compound concentration 1.0 uM
[11] = molecular target: Casein kinase I isoform gamma-1 (Homo sapiens) (UniProt Q9HCP0); assay: activity of CK1gamma1(h) at 1.0 µM in the Eurofins Kinase panel; conditions: Compound concentration 1.0 uM
[12] = molecular target: Serine/threonine-protein kinase STK11 (Homo sapiens) (UniProt Q15831); assay: activity of LKB1(h) at 1.0 µM in the Eurofins Kinase panel; conditions: Compound concentration 1.0 uM
[13] = molecular target: Misshapen-like kinase 1 (Homo sapiens) (UniProt Q8N4C8); assay: activity of MINK(h) at 1.0 µM in the Eurofins Kinase panel; conditions: Compound concentration 1.0 uM
[14] = molecular target: Serine/threonine-protein kinase PAK 3 (Homo sapiens) (UniProt O75914); assay: activity of PAK3(h) at 1.0 µM in the Eurofins Kinase panel; conditions: Compound concentration 1.0 uM
[15] = molecular target: Homeodomain-interacting protein kinase 2 (Homo sapiens) (UniProt Q9H2X6); assay: activity of HIPK2(h) at 1.0 µM in the Eurofins Kinase panel; conditions: Compound concentration 1.0 uM
Chain of Homeodomain-interacting protein kinase 2 (Homo sapiens) (Q9H2X6 whole entry, looked up): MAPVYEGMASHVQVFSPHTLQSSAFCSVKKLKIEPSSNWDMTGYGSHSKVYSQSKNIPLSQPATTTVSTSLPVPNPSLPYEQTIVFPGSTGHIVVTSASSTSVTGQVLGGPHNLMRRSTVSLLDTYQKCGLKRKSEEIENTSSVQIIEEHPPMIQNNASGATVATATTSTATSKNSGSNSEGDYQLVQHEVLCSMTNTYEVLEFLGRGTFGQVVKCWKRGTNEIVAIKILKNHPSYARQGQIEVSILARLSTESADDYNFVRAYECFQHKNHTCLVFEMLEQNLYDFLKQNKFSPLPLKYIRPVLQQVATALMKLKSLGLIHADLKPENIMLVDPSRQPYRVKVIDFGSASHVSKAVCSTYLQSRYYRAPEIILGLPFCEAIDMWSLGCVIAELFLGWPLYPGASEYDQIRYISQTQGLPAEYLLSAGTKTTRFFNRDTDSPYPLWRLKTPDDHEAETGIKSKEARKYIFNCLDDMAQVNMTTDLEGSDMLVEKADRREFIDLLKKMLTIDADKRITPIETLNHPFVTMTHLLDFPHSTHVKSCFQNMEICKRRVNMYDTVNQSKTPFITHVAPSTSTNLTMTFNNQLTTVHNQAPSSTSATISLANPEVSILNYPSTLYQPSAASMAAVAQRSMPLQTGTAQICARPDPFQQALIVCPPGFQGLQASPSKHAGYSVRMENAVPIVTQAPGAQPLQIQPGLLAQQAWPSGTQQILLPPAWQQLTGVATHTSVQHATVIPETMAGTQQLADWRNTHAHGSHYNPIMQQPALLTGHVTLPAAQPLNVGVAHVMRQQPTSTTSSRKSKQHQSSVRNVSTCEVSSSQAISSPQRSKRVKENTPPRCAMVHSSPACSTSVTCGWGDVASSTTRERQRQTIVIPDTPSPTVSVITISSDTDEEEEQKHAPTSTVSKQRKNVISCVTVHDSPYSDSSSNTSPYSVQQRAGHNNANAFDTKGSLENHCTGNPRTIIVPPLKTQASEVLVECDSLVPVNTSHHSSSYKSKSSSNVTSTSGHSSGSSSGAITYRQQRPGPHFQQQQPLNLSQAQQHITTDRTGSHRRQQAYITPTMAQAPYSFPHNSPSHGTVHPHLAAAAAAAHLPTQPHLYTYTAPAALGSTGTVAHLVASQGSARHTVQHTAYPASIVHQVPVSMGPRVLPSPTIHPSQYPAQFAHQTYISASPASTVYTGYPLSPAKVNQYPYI

[16] = molecular target: Tyrosine-protein kinase TXK (Homo sapiens) (UniProt P42681); assay: activity of Txk(h) at 1.0 µM in the Eurofins Kinase panel; conditions: Compound concentration 1.0 uM
Chain of Tyrosine-protein kinase TXK (Homo sapiens) (P42681 whole entry): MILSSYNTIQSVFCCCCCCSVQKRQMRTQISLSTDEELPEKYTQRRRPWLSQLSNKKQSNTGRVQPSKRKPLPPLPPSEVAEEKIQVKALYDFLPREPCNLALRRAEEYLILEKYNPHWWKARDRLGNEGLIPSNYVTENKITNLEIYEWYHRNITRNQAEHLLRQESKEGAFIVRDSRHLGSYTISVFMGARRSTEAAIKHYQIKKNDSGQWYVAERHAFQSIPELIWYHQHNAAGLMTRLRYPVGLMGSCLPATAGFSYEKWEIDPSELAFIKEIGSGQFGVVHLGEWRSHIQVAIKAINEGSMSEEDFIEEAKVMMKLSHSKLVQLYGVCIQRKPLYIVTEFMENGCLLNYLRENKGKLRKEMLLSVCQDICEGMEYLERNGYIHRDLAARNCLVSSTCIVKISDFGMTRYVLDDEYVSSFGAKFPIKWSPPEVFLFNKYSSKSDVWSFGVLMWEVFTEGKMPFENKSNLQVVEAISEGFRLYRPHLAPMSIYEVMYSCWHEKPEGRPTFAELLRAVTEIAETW

[17] = molecular target: PI3-kinase p110-delta/p85-alpha (Homo sapiens) (UniProt P27986+O00329); assay: activity of PI3 Kinase (p110delta/p85alpha)(h) at 1.0 µM in the Eurofins Kinase panel; type: protein-complex assay; conditions: Compound concentration 1.0 uM
[18] = molecular target: SNF-related serine/threonine-protein kinase (Homo sapiens) (UniProt Q9NRH2); assay: activity of SNRK(h) at 1.0 µM in the Eurofins Kinase panel; conditions: Compound concentration 1.0 uM
Chain of SNF-related serine/threonine-protein kinase (Homo sapiens) (Q9NRH2 whole entry): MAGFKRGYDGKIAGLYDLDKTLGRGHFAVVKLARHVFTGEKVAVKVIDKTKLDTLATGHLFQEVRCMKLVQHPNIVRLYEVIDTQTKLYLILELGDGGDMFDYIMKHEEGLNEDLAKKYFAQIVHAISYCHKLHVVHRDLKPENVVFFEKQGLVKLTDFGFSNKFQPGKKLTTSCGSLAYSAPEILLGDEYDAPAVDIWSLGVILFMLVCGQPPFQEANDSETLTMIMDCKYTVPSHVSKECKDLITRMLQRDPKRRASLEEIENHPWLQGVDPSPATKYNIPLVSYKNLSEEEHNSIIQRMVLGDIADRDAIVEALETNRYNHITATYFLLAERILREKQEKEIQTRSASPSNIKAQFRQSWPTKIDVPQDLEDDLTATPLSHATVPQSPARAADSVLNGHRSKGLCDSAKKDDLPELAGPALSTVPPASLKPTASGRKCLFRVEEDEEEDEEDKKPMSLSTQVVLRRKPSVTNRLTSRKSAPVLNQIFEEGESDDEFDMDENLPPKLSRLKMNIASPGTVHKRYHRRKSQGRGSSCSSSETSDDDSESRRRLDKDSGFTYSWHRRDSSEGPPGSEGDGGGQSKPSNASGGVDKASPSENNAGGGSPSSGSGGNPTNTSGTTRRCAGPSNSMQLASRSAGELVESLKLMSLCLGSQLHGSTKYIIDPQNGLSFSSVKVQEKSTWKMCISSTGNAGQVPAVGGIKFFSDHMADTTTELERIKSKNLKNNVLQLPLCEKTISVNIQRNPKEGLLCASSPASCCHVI

[19] = molecular target: Aurora kinase B (Homo sapiens, UniProt Q96GD4); assay: Promega NanoBRET (AURKB)
[20] = molecular target: Activin receptor type-1 (Homo sapiens) (UniProt Q04771); assay: activity of ALK2(h) at 1.0 µM in the Eurofins Kinase panel; conditions: Compound concentration 1.0 uM
[21] = molecular target: Bone morphogenetic protein receptor type-1B (Homo sapiens) (UniProt O00238); assay: activity of ALK6(h) at 1.0 µM in the Eurofins Kinase panel; conditions: Compound concentration 1.0 uM
[22] = molecular target: Tyrosine-protein kinase Lck (Homo sapiens) (UniProt P06239); assay: activity of Lck(h) activated at 1.0 µM in the Eurofins Kinase panel; conditions: Compound concentration 1.0 uM
[23] = molecular target: Tyrosine-protein kinase receptor UFO (Homo sapiens) (UniProt P30530); assay: activity of Axl(h) at 1.0 µM in the Eurofins Kinase panel; conditions: Compound concentration 1.0 uM
[24] = molecular target: Serine/threonine-protein kinase TAO3 (Homo sapiens) (UniProt Q9H2K8); assay: activity of TAO3(h) at 1.0 µM in the Eurofins Kinase panel; conditions: Compound concentration 1.0 uM
[25] = molecular target: Glycogen synthase kinase-3 alpha (Homo sapiens) (UniProt P49840); assay: activity of GSK3alpha(h) at 1.0 µM in the Eurofins Kinase panel; conditions: Compound concentration 1.0 uM
[26] = molecular target: Serine/threonine-protein kinase SIK2 (Homo sapiens) (UniProt Q9H0K1); assay: activity of SIK2(h) at 1.0 µM in the Eurofins Kinase panel; conditions: Compound concentration 1.0 uM
[27] = molecular target: Serine/threonine-protein kinase PAK 1 (Homo sapiens) (UniProt Q13153); assay: activity of PAK1(h) at 1.0 µM in the Eurofins Kinase panel; conditions: Compound concentration 1.0 uM
[28] = molecular target: Ribosomal protein S6 kinase alpha-2 (Homo sapiens) (UniProt Q15349); assay: activity of Rsk3(h) at 1.0 µM in the Eurofins Kinase panel; conditions: Compound concentration 1.0 uM
[29] = molecular target: MAP/microtubule affinity-regulating kinase 4 (Homo sapiens) (UniProt Q96L34); assay: activity of MARK4(h) at 1.0 µM in the Eurofins Kinase panel; conditions: Compound concentration 1.0 uM
[30] = molecular target: Serine/threonine-protein kinase PRP4 homolog (Homo sapiens) (UniProt Q13523); assay: activity of PRP4(h) at 1.0 µM in the Eurofins Kinase panel; conditions: Compound concentration 1.0 uM
Chain of Serine/threonine-protein kinase PRP4 homolog (Homo sapiens) (Q13523 whole entry, canonical isoform): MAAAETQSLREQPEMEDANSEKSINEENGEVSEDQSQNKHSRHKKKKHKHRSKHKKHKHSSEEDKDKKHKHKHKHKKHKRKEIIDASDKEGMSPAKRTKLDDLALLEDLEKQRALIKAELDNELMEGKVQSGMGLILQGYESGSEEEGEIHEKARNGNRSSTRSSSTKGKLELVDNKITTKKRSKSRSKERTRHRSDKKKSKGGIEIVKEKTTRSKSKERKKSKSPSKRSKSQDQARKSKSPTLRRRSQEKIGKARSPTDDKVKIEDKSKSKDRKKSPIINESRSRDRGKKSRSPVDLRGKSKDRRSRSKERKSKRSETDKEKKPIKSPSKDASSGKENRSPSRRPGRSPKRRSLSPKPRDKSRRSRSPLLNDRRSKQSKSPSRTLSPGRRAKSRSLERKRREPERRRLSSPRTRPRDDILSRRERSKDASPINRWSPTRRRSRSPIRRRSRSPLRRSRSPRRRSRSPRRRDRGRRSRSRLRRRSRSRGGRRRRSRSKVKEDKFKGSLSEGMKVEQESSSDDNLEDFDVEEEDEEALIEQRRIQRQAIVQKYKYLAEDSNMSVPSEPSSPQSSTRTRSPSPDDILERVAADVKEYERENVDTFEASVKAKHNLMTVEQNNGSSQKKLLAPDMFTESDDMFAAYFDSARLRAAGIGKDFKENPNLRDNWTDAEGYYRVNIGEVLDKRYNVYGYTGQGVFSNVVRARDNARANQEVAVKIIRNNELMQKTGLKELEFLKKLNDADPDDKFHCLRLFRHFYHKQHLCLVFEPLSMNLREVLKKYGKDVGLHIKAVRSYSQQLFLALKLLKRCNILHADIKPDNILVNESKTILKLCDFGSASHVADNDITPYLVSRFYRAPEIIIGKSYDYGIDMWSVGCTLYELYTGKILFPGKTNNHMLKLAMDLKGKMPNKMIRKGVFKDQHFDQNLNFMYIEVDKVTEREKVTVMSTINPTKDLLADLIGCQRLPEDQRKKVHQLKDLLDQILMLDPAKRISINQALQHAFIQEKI

[31] = molecular target: Casein kinase I isoform gamma-2 (Homo sapiens) (UniProt P78368); assay: activity of CK1gamma2(h) at 1.0 µM in the Eurofins Kinase panel; conditions: Compound concentration 1.0 uM
[32] = molecular target: G protein-coupled receptor kinase 5 (Homo sapiens) (UniProt P34947); assay: activity of GRK5(h) at 1.0 µM in the Eurofins Kinase panel; conditions: Compound concentration 1.0 uM
[33] = molecular target: Serine/threonine-protein kinase Nek3 (Homo sapiens) (UniProt P51956); assay: activity of NEK3(h) at 1.0 µM in the Eurofins Kinase panel; conditions: Compound concentration 1.0 uM
[34] = molecular target: Calcium/calmodulin-dependent protein kinase type IV (Homo sapiens) (UniProt Q16566); assay: activity of CaMKIV(h) at 1.0 µM in the Eurofins Kinase panel; conditions: Compound concentration 1.0 uM
Chain of Calcium/calmodulin-dependent protein kinase type IV (Homo sapiens) (Q16566 whole entry): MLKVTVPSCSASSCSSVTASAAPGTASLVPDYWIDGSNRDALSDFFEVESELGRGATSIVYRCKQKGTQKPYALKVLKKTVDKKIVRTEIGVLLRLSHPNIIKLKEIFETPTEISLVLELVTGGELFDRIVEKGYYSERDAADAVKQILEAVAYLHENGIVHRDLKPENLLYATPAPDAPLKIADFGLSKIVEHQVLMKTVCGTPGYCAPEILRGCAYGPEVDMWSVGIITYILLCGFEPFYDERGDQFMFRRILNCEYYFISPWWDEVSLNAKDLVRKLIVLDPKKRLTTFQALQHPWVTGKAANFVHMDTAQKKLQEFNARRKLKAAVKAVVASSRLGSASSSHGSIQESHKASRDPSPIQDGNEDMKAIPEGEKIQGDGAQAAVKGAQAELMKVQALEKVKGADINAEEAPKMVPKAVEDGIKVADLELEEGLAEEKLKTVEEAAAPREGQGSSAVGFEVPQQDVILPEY

[35] = molecular target: Rho-associated protein kinase 1 (Homo sapiens) (UniProt Q13464); assay: activity of ROCK-I(h) at 1.0 µM in the Eurofins Kinase panel; conditions: Compound concentration 1.0 uM
[36] = molecular target: PAS domain-containing serine/threonine-protein kinase (Homo sapiens) (UniProt Q96RG2); assay: activity of PASK(h) at 1.0 µM in the Eurofins Kinase panel; conditions: Compound concentration 1.0 uM
[37] = molecular target: NUAK family SNF1-like kinase 1 (Homo sapiens) (UniProt O60285); assay: activity of ARK5(h) at 1.0 µM in the Eurofins Kinase panel; conditions: Compound concentration 1.0 uM
[38] = molecular target: Serine/threonine-protein kinase SIK1 (Homo sapiens) (UniProt P57059); assay: activity of SIK(h) at 1.0 µM in the Eurofins Kinase panel; conditions: Compound concentration 1.0 uM
[39] = molecular target: Serine/threonine-protein kinase 16 (Homo sapiens) (UniProt O75716); assay: activity of STK16(h) at 1.0 µM in the Eurofins Kinase panel; conditions: Compound concentration 1.0 uM

Chain of Protein-tyrosine kinase 2-beta (Homo sapiens) (Q14289 whole entry, looked up): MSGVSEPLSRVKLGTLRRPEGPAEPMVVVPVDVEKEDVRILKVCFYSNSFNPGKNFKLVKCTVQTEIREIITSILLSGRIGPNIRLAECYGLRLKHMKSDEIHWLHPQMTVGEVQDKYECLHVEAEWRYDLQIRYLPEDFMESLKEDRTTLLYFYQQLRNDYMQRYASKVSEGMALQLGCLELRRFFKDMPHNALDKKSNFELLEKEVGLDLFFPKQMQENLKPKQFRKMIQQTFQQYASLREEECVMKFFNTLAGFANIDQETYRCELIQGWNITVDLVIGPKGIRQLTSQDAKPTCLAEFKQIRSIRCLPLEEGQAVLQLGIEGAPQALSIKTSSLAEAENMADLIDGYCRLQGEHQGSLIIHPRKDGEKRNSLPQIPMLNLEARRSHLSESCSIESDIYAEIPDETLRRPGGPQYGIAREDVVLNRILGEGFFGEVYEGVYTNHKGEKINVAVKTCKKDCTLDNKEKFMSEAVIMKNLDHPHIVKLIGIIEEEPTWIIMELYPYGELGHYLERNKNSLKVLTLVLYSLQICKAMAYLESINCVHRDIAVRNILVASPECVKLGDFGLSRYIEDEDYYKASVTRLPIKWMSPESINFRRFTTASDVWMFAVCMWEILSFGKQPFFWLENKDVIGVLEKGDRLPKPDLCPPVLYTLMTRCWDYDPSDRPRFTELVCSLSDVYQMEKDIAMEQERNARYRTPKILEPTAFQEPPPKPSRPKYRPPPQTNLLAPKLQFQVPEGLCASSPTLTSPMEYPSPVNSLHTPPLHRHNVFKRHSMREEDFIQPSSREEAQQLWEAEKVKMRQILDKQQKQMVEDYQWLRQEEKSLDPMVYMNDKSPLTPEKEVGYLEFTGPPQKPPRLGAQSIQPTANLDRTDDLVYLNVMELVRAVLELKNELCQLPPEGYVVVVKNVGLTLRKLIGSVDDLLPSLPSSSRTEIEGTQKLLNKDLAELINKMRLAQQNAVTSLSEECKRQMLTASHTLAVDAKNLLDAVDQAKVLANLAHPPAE

activity [1]: 76% | activity [2]: 90% | activity [3]: 106% | activity [4]: 91% | activity [5]: 86% | activity [6]: 113% | activity [7]: 113% | activity [8]: 98% | activity [9]: 106% | activity [10]: 120% | activity [11]: 101% | activity [12]: 99% | activity [13]: 89% | activity [14]: 89% | activity [15]: 105% | activity [16]: 110% | activity [17]: 110% | activity [18]: 111% | IC50 [19]: > 10 µM (not active) | activity [20]: 122% | activity [21]: 74% | activity [22]: 119% | activity [23]: 91% | activity [24]: 100% | activity [25]: 87% | activity [26]: 109% | activity [27]: 95% | activity [28]: 112% | activity [29]: 92% | activity [30]: 100% | activity [31]: 97% | activity [32]: 97% | activity [33]: 110% | activity [34]: 99% | activity [35]: 96% | activity [36]: 72% | activity [37]: 85% | activity [38]: 105% | activity [39]: 94%
SMILES: Cc1cc2c(-c3ccc(NC(=O)[C@H](N)CC(C)(C)C)cc3C)ccnc2[nH]1
